Common to all, as to test: MTS proliferation assay
Common to all, as to assay type: cell-based, human

One experiment has as its system COLO-320-HSR. On the procedure:
(§1) Cell lines and in vitro cytotoxicity assay. Cells were maintained at 37° C. under standard cell culture conditions. Cells were plated at an optimized density for each cell line per well in 96-well microtiter FALCON® plates, incubated overnight, and then exposed to a serial dilution of drug. […] The results were expressed as an IC50, which is the drug concentration required to inhibit cell proliferation to 50% of that of untreated control cells. The mean IC50 and standard deviation (SD) from multiple tests for each cell line were calculated.
(§2) In vitro Cellular Proliferation Assays.

A further experiment concerns SNU-81. Here is the method:
as §1, §2

Another experiment relates to T84. On the procedure: as §1, §2
A further experiment deals with KM12SM. Here is the method:
as §1, §2

pIC50: −log10 of the molar value.

One may read the pIC50 as the negative decadic logarithm of the IC50, by convention in mol/L. Higher therefore signals a low IC50. Turning to `C[C@@]1(C(=O)Nc2ccc(F)nc2)CCCN1c1nc(Nc2cc(C3CC3)n[nH]2)c2cccn2n1` [BMS-754807, (2S)-1-(4-((5-cyclopropyl-1H-pyrazol-3-yl)amino)pyrrolo[2,1-f][1,2,4]triazin-2-yl)-N-(6-fluoro-3-pyridinyl)-2-methyl-2-pyrrolidinecarboxamide], the “Sensitivity to BMS-754807” value in the experiment on COLO-320-HSR (COLO320HSR, preliminary panel of 45 CRC cell lines) is “Sensitive (a sensitive cell line was classified as one with an IC50 of ≦50 nmol/L)”; in the experiment on T84 (T84, preliminary panel of 45 CRC cell lines) it was “Resistant (resistant cell lines had IC50 values of >50 nmol/L)”; with KM12SM (KM12SM, preliminary panel of 45 CRC cell lines) it was “Sensitive (a sensitive cell line was classified as one with an IC50 of ≦50 nmol/L)”. Moreover, the “Sensitivity Classes” value with COLO-320-HSR (COLO-320-HSR) is “S (“S” refers Sensitive)”; in the experiment with SNU-81 (SNU-81), “R (“R” refers Resistant)”; in the experiment with T84 (T84), “R (“R” refers Resistant)”; in the experiment on KM12SM (KM12SM), “S (“S” refers Sensitive)”. Moreover, the pIC50 in the experiment on COLO-320-HSR (Homo sapiens, COLO-320-HSR, 72 h) was 7.46; in the experiment with SNU-81 (Homo sapiens, 72 h), 5.30; in the experiment on T84 (Homo sapiens, T84, 72 h) it was 5.28; in the experiment with KM12SM (Homo sapiens, 72 h), 7.43.

For the origin of these results see patent US20140309229A1, “METHODS FOR SELECTING AND TREATING CANCER IN PATIENTS WITH IGF-1R/IR INHIBITORS” (priority 2011, published 2014).
